This passage reports IC50 results from US11634396B2 (priority 2021, dated 2023).

By IC50 is commonly meant the concentration at which inhibition is half-maximal.

Each structure is given as a SMILES string. Read-outs that look alike come from different tables or passages of the source.

The assay deals with human mOR (Homo sapiens (Human), UniProt P35372). The experiment in a line: cell-based.
Chain of human mOR (P35372 whole entry): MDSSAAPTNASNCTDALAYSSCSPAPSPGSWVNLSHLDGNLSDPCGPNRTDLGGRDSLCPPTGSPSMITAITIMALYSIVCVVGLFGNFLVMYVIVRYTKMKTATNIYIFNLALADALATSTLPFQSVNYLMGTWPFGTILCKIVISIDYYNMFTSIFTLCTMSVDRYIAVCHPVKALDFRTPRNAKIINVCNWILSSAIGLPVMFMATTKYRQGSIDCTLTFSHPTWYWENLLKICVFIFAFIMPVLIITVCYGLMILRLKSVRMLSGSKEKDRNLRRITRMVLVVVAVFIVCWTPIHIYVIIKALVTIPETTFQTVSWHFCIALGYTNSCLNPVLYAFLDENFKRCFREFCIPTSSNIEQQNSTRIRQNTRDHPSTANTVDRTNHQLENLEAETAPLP

Turning to `CN(C)[C@H](CNC(=O)C[C@H](c1cccnc1)C1(C)CC1)Cc1ccc(O)cc1C(F)(F)F` [Compound 256, (S)-N-((S)-2-(dimethylamino)-3-(4-hydroxy-2-(trifluoromethyl)phenyl)propyl)-3-(1-methylcyclopropyl)-3-(pyridin-3-yl)propanamide], the IC50 was less than 300 nM.

Consider `CN(C)[C@H](CNC(=O)C[C@H](c1cccnc1)C1(C(F)(F)F)CC1)Cc1ccc(O)c(F)c1Cl` [Compound 257, (R)-N-((S)-3-(2-chloro-3-fluoro-4-hydroxyphenyl)-2-(dimethylamino)propyl)-3-(pyridin-3-yl)-3-(1-(trifluoromethyl)cyclopropyl)propanamide], for which the half-inhibitory concentration (IC50) was less than 300 nM.

As for `CN(C)[C@H](CNC(=O)C[C@H](c1ccncc1)C1CC1)Cc1ccc(O)c(F)c1Cl` [Compound 258, (S)-N-((S)-3-(2-chloro-3-fluoro-4-hydroxyphenyl)-2-(dimethylamino)propyl)-3-cyclopropyl-3-(pyridin-4-yl)propanamide], the IC50 was less than 300 nM.

Take `COc1ccc(C[C@@H](CNC(=O)C[C@H](c2cccnc2)C2(C(F)(F)F)CC2)N(C)C)c(Cl)c1F` [Compound 259, (R)-N-((S)-3-(2-chloro-3-fluoro-4-methoxyphenyl)-2-(dimethylamino)propyl)-3-(pyridin-3-yl)-3-(1-(trifluoromethyl)cyclopropyl)propanamide]: the IC50 is more than 3000 nM.

With `CN(C)[C@H](CNC(=O)C[C@H](CC1CC1)c1ccncc1)Cc1ccc(O)cc1Cl` [Compound 260, (S)-N-((S)-3-(2-chloro-4-hydroxyphenyl)-2-(dimethylamino)propyl)-4-cyclopropyl-3-(pyridin-4-yl)butanamide], the IC50 was less than 300 nM.

As to `CN(C)[C@H](CNC(=O)C[C@H](c1ccncc1)C1(C(F)(F)F)CC1)Cc1ccc(O)cc1Cl` [Compound 261, (R)-N-((S)-3-(2-chloro-4-hydroxyphenyl)-2-(dimethylamino)propyl)-3-(pyridin-4-yl)-3-(1-(trifluoromethyl)cyclopropyl)propanamide], the IC50 was less than 300 nM.

With `CN(C)[C@H](CNC(=O)C[C@H](c1cccnc1)C1(C(F)(F)F)CC1)Cc1ccc(O)cc1Cl` [Compound 262, (R)-N-((S)-3-(2-chloro-4-hydroxyphenyl)-2-(dimethylamino)propyl)-3-(pyridin-3-yl)-3-(1-(trifluoromethyl)cyclopropyl)propanamide], the half-maximal inhibitory concentration (IC50) is less than 300 nM.

`Cc1cc(O)ccc1C[C@@H](CNC(=O)C[C@H](c1cncs1)C1CC1)N(C)C` [Compound 264, (S)-3-cyclopropyl-N-((S)-2-(dimethylamino)-3-(4-hydroxy-2-methylphenyl)propyl)-3-(thiazol-5-yl)propanamide]: the concentration for half-maximal inhibition (IC50) was less than 300 nM.

Turning to `Cc1cc(O)ccc1C[C@@H](CNC(=O)C[C@H](c1ccoc1)C1(C(F)(F)F)CC1)N(C)C` [Compound 265, (R)-N-((S)-2-(dimethylamino)-3-(4-hydroxy-2-methylphenyl)propyl)-3-(furan-3-yl)-3-(1-(trifluoromethyl)cyclopropyl)propanamide], the IC50 was less than 300 nM.

Consider `Cc1ccc([C@@H](CC(=O)NC[C@H](Cc2ccc(O)cc2C)N(C)C)C2(C(F)(F)F)CC2)o1` [Compound 266, (S)-N-((S)-2-(dimethylamino)-3-(4-hydroxy-2-methylphenyl)propyl)-3-(5-methylfuran-2-yl)-3-(1-(trifluoromethyl)cyclopropyl) propanamide], for which the concentration for half-maximal inhibition (IC50) is less than 300 nM.

Regarding `Cc1cc(O)ccc1C[C@@H](CNC(=O)C[C@H](c1cncs1)C1(C(F)(F)F)CC1)N(C)C` [Compound 268, (S)-N-((S)-2-(dimethylamino)-3-(4-hydroxy-2-methylphenyl)propyl)-3-(thiazol-5-yl)-3-(1-(trifluoromethyl)cyclopropyl)propanamide], the half-maximal inhibitory concentration (IC50) was less than 300 nM.

As for `Cc1cc(O)ccc1C[C@@H](CNC(=O)C[C@H](c1cccnc1)C1(C(F)(F)F)CC1)N(C)C` [Compound 269, (R)-N-((S)-2-(dimethylamino)-3-(4-hydroxy-2-methylphenyl)propyl)-3-(pyridin-3-yl)-3-(1-(trifluoromethyl)cyclopropyl)propanamide], the concentration for half-maximal inhibition (IC50) is less than 300 nM.

On to `Cc1cc(O)ccc1C[C@@H](CNC(=O)CC(c1ccncc1)C1(C(F)(F)F)CC1)N(C)C` (stereo partly drawn) [Compound 270, N-((S)-2-(dimethylamino)-3-(4-hydroxy-2-methylphenyl)propyl)-3-(pyridin-4-yl)-3-(1-(trifluoromethyl)cyclopropyl)propanamide], for which the IC50 was less than 300 nM.

`Cc1cc(O)ccc1C[C@@H](CNC(=O)CC(c1ncccn1)C1(C(F)(F)F)CC1)N(C)C` (stereo partly drawn) [Compound 271, N-((S)-2-(dimethylamino)-3-(4-hydroxy-2-methylphenyl)propyl)-3-(pyrimidin-2-yl)-3-(1-(trifluoromethyl)cyclopropyl)propanamide]: the IC50 is less than 300 nM.

On to `Cc1cc(O)ccc1C[C@@H](CNC(=O)CC(c1cccnc1)C1(C(F)(F)F)CC1)N(C)C` (stereo partly drawn) [Compound 272, N-((S)-2-(dimethylamino)-3-(4-hydroxy-2-methylphenyl)propyl)-3-(pyridin-3-yl)-3-(1-(trifluoromethyl)cyclopropyl)propanamide], for which the IC50 is less than 300 nM.

In the case of `Cc1cc(O)ccc1C[C@@H](CNC(=O)CC(c1ncc(Cl)cn1)C1(C(F)(F)F)CC1)N(C)C` (stereo partly drawn) [Compound 274, 3-(5-chloropyridmidin-2-yl)-N-((S)-2-(dimethylamino)-3-(4-hydroxy-2-methylphenyl)propyl)-3-(1-(trifluoromethyl)cyclopropyl) propanamide], the IC50 is less than 300 nM.

For `CC(C)[C@H](CC(=O)NC[C@H](Cc1ccc(O)c(Cl)c1)N(C)C)c1cccnc1` [Compound 276, (S)-N-((S)-3-(3-chloro-4-hydroxyphenyl)-2-(dimethylamino)propyl)-4-methyl-3-(pyridin-3-yl)pentanamide], the IC50 is less than 300 nM.

Take `CN(C)[C@H](CNC(=O)C[C@H](c1ccncc1)C1CC1)Cc1ccc(O)c(Cl)c1` [Compound 277, (S)-N-((S)-3-(3-chloro-4-hydroxyphenyl)-2-(dimethylamino)propyl)-3-cyclopropyl-3-(pyridin-4-yl)propanamide]: the IC50 is less than 300 nM.

As to `CN(C)[C@H](CNC(=O)C[C@H](c1ccncc1)C1(C(F)(F)F)CC1)Cc1ccc(O)c(Cl)c1` [Compound 278, (R)-N-((S)-3-(3-chloro-4-hydroxyphenyl)-2-(dimethylamino)propyl)-3-(pyridin-4-yl)-3-(1-(trifluoromethyl)cyclopropyl)propanamide], the 50% inhibitory concentration (IC50) is less than 300 nM.

In the case of `CN(C)[C@H](CNC(=O)C[C@@H](CC1CC1)c1cccnc1)Cc1ccc(O)c(Cl)c1` [Compound 279, (R)-N-((S)-3-(3-chloro-4-hydroxyphenyl)-2-(dimethylamino)propyl)-4-cyclopropyl-3-(pyridin-3-yl)butanamide], the IC50 was less than 300 nM.

As to `CN(C)[C@H](CNC(=O)C[C@H](c1cccnc1)C1CC1)Cc1ccc(O)c(Cl)c1` [Compound 281, (S)-N-((S)-3-(3-chloro-4-hydroxyphenyl)-2-(dimethylamino)propyl)-3-cyclopropyl-3-(pyridin-3-yl)propanamide], the 50% inhibitory concentration (IC50) was less than 300 nM.

`CN(C)[C@H](CNC(=O)C[C@@H](CC1CC1)c1cncnc1)Cc1ccc(O)c(Cl)c1` [Compound 282, (R)-N-((S)-3-(3-chloro-4-hydroxyphenyl)-2-(dimethylamino)propyl)-4-cyclopropyl-3-(pyrimidin-5-yl)butanamide]: the IC50 is less than 300 nM.

`Cc1ncc([C@@H](CC(=O)NC[C@H](Cc2ccc(O)c(Cl)c2)N(C)C)C2(C(F)(F)F)CC2)cn1` [Compound 283, (R)-N-((S)-3-(3-chloro-4-hydroxyphenyl)-2-(dimethylamino)propyl)-3-(2-methylpyrimidin-5-yl)-3-(1-(trifluoromethyl)cyclopropyl)propanamide]: the half-inhibitory concentration (IC50) was less than 300 nM.

With `CN(C)[C@H](CNC(=O)CC(c1ccncc1)C1(C(F)(F)F)CC1)Cc1ccc(O)c(Cl)c1` (stereo partly drawn) [Compound 284, N-((S)-3-(3-chloro-4-hydroxyphenyl)-2-(dimethylamino)propyl)-3-(pyridin-4-yl)-3-(1-(trifluoromethyl)cyclopropyl)propanamide], the 50% inhibitory concentration (IC50) is less than 300 nM.

In the case of `CN(C)[C@H](CNC(=O)CC(c1ncccn1)C1(C(F)(F)F)CC1)Cc1ccc(O)c(Cl)c1` (stereo partly drawn) [Compound 285, N-((S)-3-(3-chloro-4-hydroxyphenyl)-2-(dimethylamino)propyl)-3-(pyrimidin-2-yl)-3-(1-(trifluoromethyl)cyclopropyl)propanamide], the IC50 was less than 300 nM.

For the molecule `CN(C)[C@H](CNC(=O)C[C@H](CC1CC1)c1cccnc1)Cc1ccc(O)c(Cl)c1` [Compound 286, (S)-N-((S)-3-(3-chloro-4-hydroxyphenyl)-2-(dimethylamino)propyl)-4-cyclopropyl-3-(pyridin-3-yl)butanamide], the IC50 was less than 300 nM.

For the molecule `CN(C)[C@H](CNC(=O)CC(c1cccnc1)C1(C(F)(F)F)CC1)Cc1ccc(O)c(Cl)c1` (stereo partly drawn) [Compound 287, N-((S)-3-(3-chloro-4-hydroxyphenyl)-2-(dimethylamino)propyl)-3-(pyridin-3-yl)-3-(1-(trifluoromethyl)cyclopropyl)propanamide], the IC50 was less than 300 nM.

Consider `CN(C)[C@H](CNC(=O)C[C@H](c1cccnc1)C1(C(F)(F)F)CC1)Cc1ccc(O)c(F)c1` [Compound 290, (R)-N-((S)-2-(dimethylamino)-3-(3-fluoro-4-hydroxyphenyl)propyl)-3-(pyridin-3-yl)-3-(1-(trifluoromethyl)cyclopropyl)propanamide], for which the half-maximal inhibitory concentration (IC50) is less than 300 nM.

Consider `CN(C)[C@H](CNC(=O)CC(c1cccnc1)C1(C(F)(F)F)CC1)Cc1ccc(O)cc1` (stereo partly drawn) [Compound 291, N-((S)-2-(dimethylamino)-3-(4-hydroxyphenyl)propyl)-3-(pyridin-3-yl)-3-(1-(trifluoromethyl)cyclopropyl)propanamide], for which the IC50 was less than 300 nM.

In the case of `CN(C)[C@H](CNC(=O)C[C@H](c1cncs1)C1CC1)Cc1ccc(O)cc1` [Compound 292, (S)-3-cyclopropyl-N-((S)-2-(dimethylamino)-3-(4-hydroxyphenyl)propyl)-3-(thiazol-5-yl)propanamide], the IC50 (CHO Tag-lite human mOR stable cell line, forskolin 4 μM and DAMGO at EC90, read-out: mOR cAMP Antagonist Assay IC50) lay within 300 to 3000 nM.
